Where two headings read alike, the source gives them in different places.
Tests used:
HUVECs = assay: Tube formation (tubulogenesis) assay in HUVECs, 18 h; format: cell-based, human; details: Homo sapiens, HUVEC, 18 h, HUVEC
How it was run: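 HUVECs (passage 1–5) seeded on reduced-growth-factor basement membrane and exposed to compounds overnight at 37°C, 5% CO2, in 2× maintenance medium with 12.5 ng/mL VEGF; 0.5% DMSO vehicle. Calcein AM-stained tube networks imaged and analysed; vehicle-normalized readouts fit to four-parameter logistic, POD set at one SD of vehicle means.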

[1] = tested on: iCell endothelial cells (human iPSC-derived ECs); assay: High-content imaging cytotoxicity in iCell endothelial cells, 24 h; format: cell-based; details: Homo sapiens, Endothelial cell, endothelial cells (endo), 24 hr
How it was run: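 Readouts were vehicle-normalised and fitted to a four-parameter logistic model. POD was set at one SD beyond 0.5% DMSO control means, and 100 µM was assigned when no response was seen. Cells were monolayers of iCell endothelial cells imaged after 24 h compound exposure using nuclear, mitochondrial and calcein dyes.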

Structure (SMILES): Clc1ccc(-c2cc(Cl)c(Cl)c(Cl)c2)cc1Cl [PCB 126, 3,3′,4,4′,5-pentachlorobiphenyl]
- minimal effective concentration (HUVECs; tube formation mtl, read-out: POD huvec.mtl.18hr): 100 µM
- minimal effective concentration (HUVECs; tube formation tlps, read-out: POD huvec.tlps.18hr): 100 µM
- minimal effective concentration (HUVECs; tube formation tta, read-out: POD huvec.tta.18hr): 100 µM
- minimal effective concentration (HUVECs; tube formation ttl, read-out: POD huvec.ttl.18hr): 100 µM
- minimal effective concentration ([1]; cyto, read-out: POD endo.cyto.24hr): 0.33 µM
- minimal effective concentration ([1]; mito, read-out: POD endo.mito.24hr): 0.33 µM
- minimal effective concentration ([1]; mitoint, read-out: POD endo.mitoint.24hr): 10.2 µM
- minimal effective concentration ([1]; nma, read-out: POD endo.nma.24hr): 100 µM
- minimal effective concentration ([1]; tc, read-out: POD endo.tc.24hr): 0.34 µM

From paper PMC7377239, “Cardiovascular Effects of Polychlorinated Biphenyls and Their Major Metabolites” (Environmental Health Perspectives, 2020)
